Test results from article PMC9971899, “Identification and structural analysis of a carbohydrate-binding module specific to alginate, a representative of a new family, CBM96” (The Journal of Biological Chemistry, 2022).
“And” between values parts separate entries of the source, which are not always exact repeats. Equal entries are not always repeated.

Experiments:
TM6-N4 [1] = test: Isothermal titration calorimetry of alginate and oligoalginate binding to TM6-N4; parameters: species or system Defluviitalea phaphyphila; conditions: ITC, 25 °C, pH 7.0; for TΔS: calculated from ΔG = ΔH-TΔS; for ΔG (binding free energy change): calculated from ΔG = −RTln Ka
Experimental: (§1) To characterize the binding of TM6-N4 to alginate, isothermal titration calorimetry (ITC) experiments were carried out at 25 °C and pH 7.0, with alginate and oligoalginate standards including G3, G4, G5, G6, G7, M3, M5, M6, and M7 as substrate and TM6-N4 as the enzyme. […] Nevertheless, G3 produced a profile of CBM–ligand interaction (Fig. 2A). It is thus likely that the binding sites of TM6-N4 required at least three uronic acid units to yield stable binding complexes. […] These discrepancies may reflect the fact that one alginate chain has accommodated several protein molecules and the fact of the thermodynamic instability of the long alginate chain.
(§2) Figure 2 Thermograms (upper panels) and binding isotherms with theoretical fits (lower panels) obtained for the binding. G3 (A), G4 (B), G5 (C), G6 (D), G7 (E), M3 (F), M5 (G), M6 (H), M7 (I), and alginate (J) to TM6-N4. The buffer used was 20 mM Tris–HCl buffer, pH 7.0. Protein concentration was 20 μM for TM6-N4.
(§3) The proteins were dialyzed extensively against buffer with 20 mM Tris–HCl (pH 7.0) without NaCl and adjusted concentration to 20 μM, and the oligosaccharide ligands (purity ≥95%; Qingdao BZ Oligo Biotech Co Ltd) or alginate ligands (viscosity >0.02 Pa·s, 1% alginate in H2O at 25 °C) were dissolved in the same buffer to minimize heats of dilution with a concentration of 200 μM. To avoid bubble formation, all the samples were degassed by centrifugation at 12,000 rpm/10 min. Calorimetric titration was performed with MicroCal PEAQ-ITC (Malvern Panalytical). During a titration experiment, the protein sample was stirred at a speed of 750 rpm and kept a constant temperature of 25 °C, and the titration needle was filled with 80 μl oligosaccharide or alginate ligand. Titrations were completed after 19 injections (each 3 μl) at an interval of 150 s. The data were analyzed by using the one-site binding model in the MicroCal PEAQ-ITC Analysis software. The fitted data yielded the dissociation constant (Kd), the number of binding sites on the protein (n), and the enthalpy of binding (ΔH). Other thermodynamic parameters can be calculated by using the standard thermodynamic equation ΔG = −RTln Ka = ΔH-TΔS. Titrations were carried out in triplicate for most ligands, and the errors are the SD of the mean of these replicates.

TM6-N4 [2] = biological target: T1, TM6-N4 (Defluviitalea phaphyphila, UniProt A0A4Y5UXE1); test: Isothermal titration calorimetry (MicroCal PEAQ-ITC) of 20 uM TM6-N4 with 200 uM oligoalginate in 20 mM Tris-HCl pH 7.0 without NaCl at 25 °C, one-site binding model, triplicate for most ligands.; conditions: SD, n = 3
T1 construct: gene Dp0100; TM6-N4 truncation of Dp0100 (187 amino acids, within TM6 segment 1020-1446, without CBM35), His tag, produced in E. coli BL21 (DE3); monomer, Ca2+ in crystal structure
Experimental: as §1, §2, §3

Row | ΔH (TM6-N4 [1]) [kcal/mol] | TΔS (TM6-N4 [1]) [kcal/mol] | ΔG (binding free energy change) (TM6-N4 [1]) | Kd (TM6-N4 [2]) [nM] | Structure (SMILES)
1 | -8.6 ± 1.2 | -0.6 | -8.1 kcal/mol and -8.1 ± 0.1 kcal/mol | – | O=C(O)[C@H]1O[C@@H](O[C@H]2[C@H](O)[C@H](O)[C@H](O[C@H]3[C@H](O)[C@H](O)[C@H](O[C@H]4[C@H](O)[C@H](O)[C@H](O[C@H]5[C@H](O)[C@H](O)C(O)O[C@@H]5C(=O)O)O[C@@H]4C(=O)O)O[C@@H]3C(=O)O)O[C@@H]2C(=O)O)[C@@H](O)[C@@H](O)[C@@H]1O (some centres unmarked) [M5, mannuronate pentasaccharide]
2 | – | – | – | 60 ± 60 | O=C(O)[C@H]1O[C@@H](O[C@H]2[C@H](O)[C@H](O)[C@H](O[C@H]3[C@H](O)[C@H](O)[C@H](O[C@H]4[C@H](O)[C@H](O)[C@H](O[C@H]5[C@H](O)[C@H](O)[C@H](O[C@H]6[C@H](O)[C@H](O)C(O)O[C@@H]6C(=O)O)O[C@@H]5C(=O)O)O[C@@H]4C(=O)O)O[C@@H]3C(=O)O)O[C@@H]2C(=O)O)[C@@H](O)[C@@H](O)[C@@H]1O (stereo partly drawn) [M6, beta-D-mannuronate hexasaccharide (hexamannuronate)]
3 | – | – | – | 1200 ± 600 | O=C(O)[C@H]1O[C@@H](O[C@H]2[C@H](O)[C@H](O)[C@H](O[C@H]3[C@H](O)[C@H](O)[C@H](O[C@H]4[C@H](O)[C@H](O)[C@H](O[C@H]5[C@H](O)[C@H](O)C(O)O[C@@H]5C(=O)O)O[C@@H]4C(=O)O)O[C@@H]3C(=O)O)O[C@@H]2C(=O)O)[C@@H](O)[C@@H](O)[C@@H]1O (stereo partly drawn) [M5, mannuronate pentasaccharide (beta-D-mannuronate pentasaccharide)]
4 | -3.5 ± 0.3 | 6.4 | -9.9 kcal/mol and -9.9 ± 0.1 kcal/mol | – | O=C(O)[C@H]1O[C@@H](O[C@H]2[C@H](O)[C@H](O)[C@H](O[C@H]3[C@H](O)[C@H](O)[C@H](O[C@H]4[C@H](O)[C@H](O)[C@H](O[C@H]5[C@H](O)[C@H](O)[C@H](O[C@H]6[C@H](O)[C@H](O)C(O)O[C@@H]6C(=O)O)O[C@@H]5C(=O)O)O[C@@H]4C(=O)O)O[C@@H]3C(=O)O)O[C@@H]2C(=O)O)[C@@H](O)[C@@H](O)[C@@H]1O (some centres unmarked) [M6]
5 | – | – | – | 200 ± 100 | O=C(O)[C@H]1O[C@@H](O[C@H]2[C@H](O)[C@H](O)[C@H](O[C@H]3[C@H](O)[C@H](O)[C@H](O[C@H]4[C@H](O)[C@H](O)[C@H](O[C@H]5[C@H](O)[C@H](O)[C@H](O[C@H]6[C@H](O)[C@H](O)[C@H](O[C@H]7[C@H](O)[C@H](O)C(O)O[C@@H]7C(=O)O)O[C@@H]6C(=O)O)O[C@@H]5C(=O)O)O[C@@H]4C(=O)O)O[C@@H]3C(=O)O)O[C@@H]2C(=O)O)[C@@H](O)[C@@H](O)[C@@H]1O (stereo partly drawn) [M7, beta-D-mannuronate heptasaccharide (heptamannuronate)]
6 | -4.2 ± 0.8 | 5.2 | -9.3 kcal/mol and -9.3 ± 0.1 kcal/mol | – | O=C(O)[C@H]1O[C@@H](O[C@H]2[C@H](O)[C@H](O)[C@H](O[C@H]3[C@H](O)[C@H](O)[C@H](O[C@H]4[C@H](O)[C@H](O)[C@H](O[C@H]5[C@H](O)[C@H](O)[C@H](O[C@H]6[C@H](O)[C@H](O)[C@H](O[C@H]7[C@H](O)[C@H](O)C(O)O[C@@H]7C(=O)O)O[C@@H]6C(=O)O)O[C@@H]5C(=O)O)O[C@@H]4C(=O)O)O[C@@H]3C(=O)O)O[C@@H]2C(=O)O)[C@@H](O)[C@@H](O)[C@@H]1O (some centres unmarked) [M7]

The remaining lines, values behind:

Row | Structure (SMILES) | ΔH (TM6-N4 [1]) [kcal/mol] | TΔS (TM6-N4 [1]) [kcal/mol] | ΔG (binding free energy change) (TM6-N4 [1]) | Kd (TM6-N4 [2]) [nM]
7 | O=C(O)[C@@H]1O[C@@H](O[C@H]2[C@H](O)[C@H](O)[C@H](O[C@H]3[C@H](O)[C@H](O)[C@H](O[C@H]4[C@H](O)[C@H](O)[C@H](O[C@H]5[C@H](O)[C@H](O)[C@H](O[C@H]6[C@H](O)[C@H](O)C(O)O[C@H]6C(=O)O)O[C@H]5C(=O)O)O[C@H]4C(=O)O)O[C@H]3C(=O)O)O[C@H]2C(=O)O)[C@@H](O)[C@@H](O)[C@@H]1O (some centres unmarked) [G6] | -8.6 ± 0.4 | 1.9 | -10.5 kcal/mol and -10.5 ± 0.1 kcal/mol | –
8 | O=C(O)[C@@H]1O[C@@H](O[C@H]2[C@H](O)[C@H](O)[C@H](O[C@H]3[C@H](O)[C@H](O)[C@H](O[C@H]4[C@H](O)[C@H](O)[C@H](O[C@H]5[C@H](O)[C@H](O)[C@H](O[C@H]6[C@H](O)[C@H](O)C(O)O[C@H]6C(=O)O)O[C@H]5C(=O)O)O[C@H]4C(=O)O)O[C@H]3C(=O)O)O[C@H]2C(=O)O)[C@@H](O)[C@@H](O)[C@@H]1O (stereo partly drawn) [G6, alpha-L-guluronate hexasaccharide (hexaguluronate)] | – | – | – | 20 ± 20
9 | O=C(O)[C@@H]1O[C@@H](O[C@H]2[C@H](O)[C@H](O)[C@H](O[C@H]3[C@H](O)[C@H](O)C(O)O[C@H]3C(=O)O)O[C@H]2C(=O)O)[C@@H](O)[C@@H](O)[C@@H]1O (stereo partly drawn) [G3, alpha-L-guluronate trisaccharide (triguluronate)] | – | – | – | 3100 ± 100
10 | O=C(O)[C@@H]1O[C@@H](O[C@H]2[C@H](O)[C@H](O)[C@H](O[C@H]3[C@H](O)[C@H](O)[C@H](O[C@H]4[C@H](O)[C@H](O)C(O)O[C@H]4C(=O)O)O[C@H]3C(=O)O)O[C@H]2C(=O)O)[C@@H](O)[C@@H](O)[C@@H]1O (some centres unmarked) [G4] | -7.3 ± 0.2 | 1.1 | -8.4 kcal/mol and -8.4 ± 0.1 kcal/mol | –
11 | O=C(O)[C@@H]1O[C@@H](O[C@H]2[C@H](O)[C@H](O)[C@H](O[C@H]3[C@H](O)[C@H](O)C(O)O[C@H]3C(=O)O)O[C@H]2C(=O)O)[C@@H](O)[C@@H](O)[C@@H]1O (some centres unmarked) [G3] | -15.1 ± 3.3 | -7.6 | -7.5 kcal/mol and -7.5 ± 0.1 kcal/mol | –
12 | O=C(O)[C@@H]1O[C@@H](O[C@H]2[C@H](O)[C@H](O)[C@H](O[C@H]3[C@H](O)[C@H](O)[C@H](O[C@H]4[C@H](O)[C@H](O)[C@H](O[C@H]5[C@H](O)[C@H](O)C(O)O[C@H]5C(=O)O)O[C@H]4C(=O)O)O[C@H]3C(=O)O)O[C@H]2C(=O)O)[C@@H](O)[C@@H](O)[C@@H]1O (some centres unmarked) [G5] | -12.3 ± 0.4 | -3.6 | -8.6 kcal/mol and -8.6 ± 0.1 kcal/mol | –
13 | O=C(O)[C@@H]1O[C@@H](O[C@H]2[C@H](O)[C@H](O)[C@H](O[C@H]3[C@H](O)[C@H](O)[C@H](O[C@H]4[C@H](O)[C@H](O)[C@H](O[C@H]5[C@H](O)[C@H](O)[C@H](O[C@H]6[C@H](O)[C@H](O)[C@H](O[C@H]7[C@H](O)[C@H](O)C(O)O[C@H]7C(=O)O)O[C@H]6C(=O)O)O[C@H]5C(=O)O)O[C@H]4C(=O)O)O[C@H]3C(=O)O)O[C@H]2C(=O)O)[C@@H](O)[C@@H](O)[C@@H]1O (some centres unmarked) [G7] | -14.2 ± 0.4 | -5.4 | -8.9 kcal/mol and -8.9 ± 0.1 kcal/mol | –
14 | O=C(O)[C@@H]1O[C@@H](O[C@H]2[C@H](O)[C@H](O)[C@H](O[C@H]3[C@H](O)[C@H](O)[C@H](O[C@H]4[C@H](O)[C@H](O)C(O)O[C@H]4C(=O)O)O[C@H]3C(=O)O)O[C@H]2C(=O)O)[C@@H](O)[C@@H](O)[C@@H]1O (stereo partly drawn) [G4, alpha-L-guluronate tetrasaccharide (tetraguluronate)] | – | – | – | 600 ± 100
15 | O=C(O)[C@@H]1O[C@@H](O[C@H]2[C@H](O)[C@H](O)[C@H](O[C@H]3[C@H](O)[C@H](O)[C@H](O[C@H]4[C@H](O)[C@H](O)[C@H](O[C@H]5[C@H](O)[C@H](O)[C@H](O[C@H]6[C@H](O)[C@H](O)[C@H](O[C@H]7[C@H](O)[C@H](O)C(O)O[C@H]7C(=O)O)O[C@H]6C(=O)O)O[C@H]5C(=O)O)O[C@H]4C(=O)O)O[C@H]3C(=O)O)O[C@H]2C(=O)O)[C@@H](O)[C@@H](O)[C@@H]1O (stereo partly drawn) [G7, alpha-L-guluronate heptasaccharide (heptaguluronate)] | – | – | – | 300 ± 70
16 | O=C(O)[C@@H]1O[C@@H](O[C@H]2[C@H](O)[C@H](O)[C@H](O[C@H]3[C@H](O)[C@H](O)[C@H](O[C@H]4[C@H](O)[C@H](O)[C@H](O[C@H]5[C@H](O)[C@H](O)C(O)O[C@H]5C(=O)O)O[C@H]4C(=O)O)O[C@H]3C(=O)O)O[C@H]2C(=O)O)[C@@H](O)[C@@H](O)[C@@H]1O (stereo partly drawn) [G5, alpha-L-guluronate pentasaccharide (pentaguluronate)] | – | – | – | 500 ± 100
